Target: T1, human CGRP receptor (Homo sapiens, UniProt O60894+Q16602)
T1 construct: SK-N-MC endogenously expressing the human CGRP receptor; endogenous in cells; host or cells: SK-N-MC human neuroblastoma cells
Assay: cAMP functional assay (HTRF cAMP dynamic-2) in SK-N-MC cells
Assay type: cell-based
Conditions: SK-N-MC cells endogenously expressing human CGRP receptor; challenge with EC80 human CGRP (0.3 nM); functional pKb converted from pIC50 by modified Cheng-Prussoff equation
Protocol: Biological Activity cAMP Functional Assay
cAMP production following receptor activation was determined using the Homogeneous Time-Resolved Fluorescence (HTRF) cAMP dynamic-2 assay (Cisbio, France). The human neuroblastoma cell line SK-N-MC endogenously expressing the human CGRP receptor was seeded at a density of 12,500 cells/well in solid walled 96 well half area plates (Costar, Catalog Number 3688, Corning Life Sciences, Germany). After 16 h incubation at 37° C. media was removed and cells were incubated at 37° C. for 30 min in serum free media containing 500 μM IBMX (Tocris, Abingdon, UK, Catalog Number 2845) and increasing concentrations of test antagonist. Following this cells were challenged with an EC80 concentration of human CGRP (0.3 nM) for a further 30 min at 37° C. and then cAMP production was determined as manufacturer's instructions before plates were read on a PheraStar fluorescence plate reader (BMG LabTech, Germany). IC50 values were derived from the inhibition curve. The pIC50 values (where pIC50=−log 10 IC50) were converted to a functional pKb value using a modified Cheng-Prussoff equation where Kd=agonist EC50 and L hot=agonist challenge concentration. The pKb values of certain compounds of the invention are detailed in Table 4.

T1 sequence (Q16602 23-461): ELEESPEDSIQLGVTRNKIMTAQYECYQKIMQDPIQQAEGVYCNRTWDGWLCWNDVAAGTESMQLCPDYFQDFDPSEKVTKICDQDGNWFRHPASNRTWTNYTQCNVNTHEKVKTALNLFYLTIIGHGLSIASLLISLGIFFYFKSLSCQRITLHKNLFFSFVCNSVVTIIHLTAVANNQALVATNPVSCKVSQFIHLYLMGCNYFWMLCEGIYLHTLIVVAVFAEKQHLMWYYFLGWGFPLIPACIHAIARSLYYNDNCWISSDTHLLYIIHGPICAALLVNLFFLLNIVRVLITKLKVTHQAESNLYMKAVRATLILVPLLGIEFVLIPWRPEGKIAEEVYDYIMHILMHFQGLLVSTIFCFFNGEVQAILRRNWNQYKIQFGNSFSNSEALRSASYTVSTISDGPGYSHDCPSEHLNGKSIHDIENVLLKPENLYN
T1 sequence (O60894 27-148): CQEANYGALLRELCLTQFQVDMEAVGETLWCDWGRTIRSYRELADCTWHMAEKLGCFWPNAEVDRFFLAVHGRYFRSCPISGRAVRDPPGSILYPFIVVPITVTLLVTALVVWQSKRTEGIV

Question: How did the Kb turn out when `CN1CCOCCOC/C=C/c2cnc3c(c2)[C@]2(Cc4ccc(cc4C2)C(=O)NC(Cc2cc(Cl)c4[nH]ncc4c2)C1=O)C(=O)N3` (mixture of isomers) [Example 3-9, (1R,20E)-10-[(7-chloro-1H-indazol-5-yl)methyl]-12-methyl-15,18-dioxa-9,12,24,26-tetrazapentacyclo[20.5.2.11,4.13,7.025,28]hentriaconta-3,5,7(30),20,22(29),23,25(28)-heptaene-8,11,27-trione] was run?
Answer: 1.26 nM

Question: Which Kb does the source give for `Cc1cc(C[C@H]2NC(=O)c3ccc4c(n3)CC3(C4)C(=O)Nc4ncc(cc43)/C=C/COCCOCCN(C)C2=O)cc2cn[nH]c12` (single isomer, unassigned) [Example 8-1] here?
Answer: 20 nM

Question: `Cc1cc(C[C@H]2NC(=O)c3ccc4c(n3)CC3(C4)C(=O)Nc4ncc(cc43)/C=C/COCCOCCN(C)C2=O)cc2cn[nH]c12` (single isomer, unassigned) [Example 8-2] was tested. Which Kb did it give?
Answer: 31.6 nM

Question: For `Cc1cc(C[C@H]2NC(=O)c3cnc4c(c3)C[C@]3(C4)C(=O)Nc4ncc(cc43)/C=C/COCCOCCN(C)C2=O)cc2cn[nH]c12` [Example 1-2, (1R,10R,20E)-12-methyl-10-[(7-methyl-1H-indazol-5-yl)methyl]-15,18-dioxa-5,9,12,24,26-pentazapentacyclo[20.5.2.11,4.13,7.025,28]hentriaconta-3,5,7(30),20,22(29),23,25(28)-heptaene-8,11,27-trione], which Kb is on record?
Answer: 200 nM

Question: Which Kb does the source give for `Cc1cc(C[C@@H]2NC(=O)c3cnc4c(c3)C[C@@]3(C4)C(=O)Nc4ncc(cc43)/C=C/COCCOCCN(C)C2=O)cc2cn[nH]c12` [Example 1-3, (1S,10S,20E)-12-methyl-10-[(7-methyl-1H-indazol-5-yl)methyl]-15,18-dioxa-5,9,12,24,26-pentazapentacyclo[20.5.2.11,4.13,7.025,28]hentriaconta-3,5,7(30),20,22(29),23,25(28)-heptaene-8,11,27-trione] here?
Answer: 10 nM

Question: For `Cc1cc(C[C@H]2NC(=O)c3cnc4c(c3)C[C@@]3(C4)C(=O)Nc4ncc(cc43)/C=C/COCCOCCOCCN(C)C2=O)cc2cn[nH]c12` [Example 1-4, (1S,10R,23E)-12-methyl-10-[(7-methyl-1H-indazol-5-yl)methyl]-15,18,21-trioxa-5,9,12,27,29-pentazapentacyclo[23.5.2.11,4.13,7.028,31]tetratriaconta-3,5,7(33),23,25(32),26,28(31)-heptaene-8,11,30-trione], which Kb is on record?
Answer: 0.251 nM

Question: With `Cc1cc(C[C@H]2NC(=O)c3cnc4c(c3)C[C@@]3(C4)C(=O)Nc4ncc(cc43)/C=C/COCCCCN(C)C2=O)cc2cn[nH]c12` [Example 1-7, (1S,10R,19E)-12-methyl-10-[(7-methyl-1H-indazol-5-yl)methyl]-17-oxa-5,9,12,23,25-pentazapentacyclo[19.5.2.11,4.13,7.024,27]triaconta-3,5,7(29),19,21(28),22,24(27)-heptaene-8,11,26-trione] as the compound, how does the Kb read?
Answer: 0.0631 nM

Question: How did the Kb turn out when `Cc1cc(C[C@H]2NC(=O)c3cnc4c(c3)C[C@@]3(C4)C(=O)Nc4ncc(cc43)CCCOCCOCCN(C)C2=O)cc2cn[nH]c12` [Example 1-8, (1S,10R)-12-methyl-10-[(7-methyl-1H-indazol-5-yl)methyl]-15,18-dioxa-5,9,12,24,26-pentazapentacyclo[20.5.2.11,4.13,7.025,28]hentriaconta-3,5,7(30),22(29),23,25(28)-hexaene-8,11,27-trione] was run?
Answer: 1.26 nM

Question: Which Kb does the source give for `Cc1cc(C[C@H]2NC(=O)c3cc4c(cn3)C[C@]3(C4)C(=O)Nc4ncc(cc43)/C=C/COCCOCCN(C)C2=O)cc2cn[nH]c12` [Example 2-1, (1S,10R,20E)-12-methyl-10-[(7-methyl-1H-indazol-5-yl)methyl]-15,18-dioxa-6,9,12,24,26-pentazapentacyclo[20.5.2.11,4.13,7.025,28]hentriaconta-3,5,7(30),20,22(29),23,25(28)-heptaene-8,11,27-trione] here?
Answer: 2.51 nM

Source: US12344621B2, “CGRP antagonist compounds” (Nxera Pharma UK Limited, priority 2019, dated 2025)
